Measurements as given in patent US5594144A, “Tropolone derivatives and pharmaceutical composition thereof for preventing and treating ischemic diseases” (The Upjohn Company, priority 1990, dated 1997).

Legend:
[1] = tested on: pig right coronary artery; assay: in vitro Ca-antagonism (high K+ induced 45Ca-influx); format: cell-based; settings: Sus scrofa, K+ 75 mM
Method: 2. in vitro Ca-antagonism
A strip of pig right coronary artery was depolarized with high K^+ (75 mM) for 30 minutes to induce voltage dependent ^45 Ca-influx. The extracellular ^45 Ca was chelated by adding EGTA and removed by washing, then the strip was lysed at 100° C. ^45 Ca in this lysate was measured as intracellular ^45 Ca by a scintillation counter. The concentration of the test compound was 10^-7, 10^-6, 10^-5 M, and applied until depolarization by K^+ was completed. Ratio of inhibition at various concentrations of the test compounds for increasing the intracellular ^45 Ca by K^+ was determined. The compound with high inhibition ratio has strong Ca-antagonism.

[2] = tested on: Brain microsomal fractions; assay: in vitro Anti-lipid peroxidation effect (TBAR production, Fe3+-ADP/NADPH); format: biochemical, rat (SD strain, male)
Method: 1. in vitro Anti-lipid peroxidation effect
Brain microsomal fractions were prepared from male rats of SD strain, and a portion (0.2 mg protein) was incubated at 37° C. for 15 minutes with a mixture of Fe^3+ (0.1 mM)--ADP (0.5 mM) in the presence or absence of the test compound, in final volume of 1 ml of 10 mM HEPES, 150 mM KCl, 0.2 mM NADPH, pH 7.4. After incubation, 1.5 ml of TCA-TBA-HCl reagent (16.7% trichloroacetic acid, 0.4% thiobarbituric acid, 0.278N hydrochloric acid) was added and the reaction mixture was heated in a boiling water for 15 minutes. After cooling in ice-bath, the reaction mixture was centrifuged, and the absorbance of the supernatant at 535 nm was measured. The amount of thiobarbituric acid reactive substance (TBAR) was obtained by calculation using an extinction coefficient of 1.56×10^5 […]. […] The results are shown in Table 1A for compounds of the formulas IA, IB, and IC, respectively. The compounds with highest inhibition rate have the greatest anti-lipid peroxidation effect.

CCN(CC)CCNc1cc(C(C)C)ccc(CN2CCN(C(c3ccc(F)cc3)c3ccc(F)cc3)CC2)c1=O [Compound 7C, 2-(N-2-diethylaminoethylamino)-7-[4-(4,4'-difluorobenzhydryl)piperazino-1-methyl]-4-isopropyl-2,4,6-cycloheptatrien-1-one]
inhibition at 10 µM [1]: 67% | Anti-Lipid Peroxidation (% inhibition) 10 μM [2]: 21.3% | Anti-Lipid Peroxidation (% inhibition) 50 μM [2]: 90.4%

COc1cc(C(C)C)ccc(CN2CCN(C(c3ccccc3)c3ccc(C(F)(F)F)cc3)CC2)c1=O (stereo not drawn) [Compound 9A, 4-isopropyl-2-methoxy-7-[4-(4-trifluoromethylbenzhydryl)piperazino-1-methyl]-2,4,6-cycloheptatrien-1-one]
inhibition at 10 µM [1]: 45% | Anti-Lipid Peroxidation (% inhibition) 10 μM [2]: 29.2% | Anti-Lipid Peroxidation (% inhibition) 50 μM [2]: 88.1%

CCNc1cccnc1N1CCN(c2cc(C(C)C)ccc(CN3CCN(C(c4ccc(F)cc4)c4ccc(F)cc4)CC3)c2=O)CC1 [Compound 20C, 7-[4-(4,4'-difluorobenzhydryl)piperazino-1-methyl]-2-[4-(3-ethylamino-2-pyridyl)piperazino]-4-isopropyl-2,4,6-cycloheptatrien-1-one]
inhibition at 10 µM [1]: 30% | Anti-Lipid Peroxidation (% inhibition) 10 μM [2]: 91.6% | Anti-Lipid Peroxidation (% inhibition) 50 μM [2]: 93.8%

CC(C)c1ccc(CN2CCN(C(c3ccc(F)cc3)c3ccc(F)cc3)CC2)c(=O)c(N2CCCCC2)c1 [Compound 17C, 7-[4-(4,4'-difluorobenzhydryl)piperazino-1-methyl]-4-isopropyl-2-piperidino-2,4,6-cycloheptatrien-1-one]
inhibition at 10 µM [1]: 53% | Anti-Lipid Peroxidation (% inhibition) 10 μM [2]: 32.4% | Anti-Lipid Peroxidation (% inhibition) 50 μM [2]: 44.1%

COCCNc1cc(C(C)C)ccc(CN2CCN(C(c3ccc(F)cc3)c3ccc(F)cc3)CC2)c1=O [Compound 14C, 7-[4-(4,4'-difluorobenzhydryl)piperazino-1-methyl]-4-isopropyl-2-(N-2-methoxyethylamino)-2,4,6-cycloheptatrien-1-one]
inhibition at 10 µM [1]: 71% | Anti-Lipid Peroxidation (% inhibition) 10 μM [2]: 27.0% | Anti-Lipid Peroxidation (% inhibition) 50 μM [2]: 90.4%

CC(C)c1ccc(C2Sc3ccccc3N2CCc2ccccc2)c(=O)c(NCCN(C)C)c1 (stereo not drawn) [Compound 16B]
Anti-Lipid Peroxidation (% inhibition) 10 μM [2]: 91.2% | Anti-Lipid Peroxidation (% inhibition) 50 μM [2]: 95.1%

CC(C)c1ccc(CN2CCN(C(c3ccc(F)cc3)c3ccc(F)cc3)CC2)c(=O)c(NCCc2ccccn2)c1 [Compound 11C, 7-[4-(4,4'-difluorobenzhydryl)piperazino-1-methyl]-4-isopropyl-2-[N-2-(2-pyridyl)ethylamino]-2,4,6-cycloheptatrien-1-one]
inhibition at 10 µM [1]: 62% | Anti-Lipid Peroxidation (% inhibition) 10 μM [2]: 32.2% | Anti-Lipid Peroxidation (% inhibition) 50 μM [2]: 89.8%

COC(=O)CNc1cc(C(C)C)ccc(CN2CCN(C(c3ccc(F)cc3)c3ccc(F)cc3)CC2)c1=O [Compound 15C, methyl 2-{N-7-[4-(4,4'-difluorobenzhydryl)piperazino-1-methyl]-4-isopropyl-1-oxo-2,4,6-cycloheptatrien-2-ylamino}acetate]
inhibition at 10 µM [1]: 92% | Anti-Lipid Peroxidation (% inhibition) 10 μM [2]: 38.6% | Anti-Lipid Peroxidation (% inhibition) 50 μM [2]: 79.8%

CC(C)c1ccc(CN2CCN(C(c3ccc(F)cc3)c3ccc(F)cc3)CC2)c(=O)c(NCCCN(C)C)c1 [Compound 2C, 7-[4-(4,4'-difluorobenzhydryl)piperazino-1-methyl]-2-(N-3-dimethylaminopropylamino)-4-isopropyl-2,4,6-cycloheptatrien-1-one]
inhibition at 10 µM [1]: 63% | Anti-Lipid Peroxidation (% inhibition) 10 μM [2]: 29.6% | Anti-Lipid Peroxidation (% inhibition) 50 μM [2]: 90.8%

COc1cc(C(C)C)ccc(C(c2ccccc2)N2CCN(C(c3ccccc3)c3ccc(Cl)cc3)CC2)c1=O (stereo not drawn) [Compound 3A, 7-{1-[4-(4-chlorobenzhydryl)piperazinomethyl]-α-phenyl}-4-isopropyl-2-methoxy-2,4,6-cycloheptatrien-1-one]
inhibition at 10 µM [1]: 0% | Anti-Lipid Peroxidation (% inhibition) 10 μM [2]: 13.8% | Anti-Lipid Peroxidation (% inhibition) 50 μM [2]: 16.3%

CCOC(=O)CCNc1cc(C(C)C)ccc(CN2CCN(C(c3ccc(F)cc3)c3ccc(F)cc3)CC2)c1=O [Compound 16C, ethyl 3-{N-7-[4-(4,4'-difluorobenzhydryl)piperazino-1-methyl]-4-isopropyl-1-oxo-2,4,6-cycloheptatrien-2-ylamino}propionate]
inhibition at 10 µM [1]: 47% | Anti-Lipid Peroxidation (% inhibition) 10 μM [2]: 29.1% | Anti-Lipid Peroxidation (% inhibition) 50 μM [2]: 58.0%

COc1cc(C(C)C)ccc(C2Sc3ccccc3N2CCCN2CCN(C(c3ccc(F)cc3)c3ccc(F)cc3)CC2)c1=O (stereo not drawn) [Compound 13B, 2-(2'-oxo-3'-methoxy-5'-isopropyl-3',5',7'-cycloheptatrienyl)-3-{3-[4-(4',4'-difluorobenzhydryl)piperazin-1-yl)propyl}benzothiazoline]
Anti-Lipid Peroxidation (% inhibition) 10 μM [2]: 91.8% | Anti-Lipid Peroxidation (% inhibition) 50 μM [2]: 94.4%

CC(C)c1ccc(CN2CCN(C(c3ccc(F)cc3)c3ccc(F)cc3)CC2)c(=O)c(N(C)CCN(C)C)c1 [Compound 5C, 7-[4-(4,4'-difluorobenzhydryl)piperazino-1-methyl]-2-(N-2-dimethylaminoethyl-N-methylamino)-4-isopropyl-2,4,6-cycloheptatrien-1-one]
inhibition at 10 µM [1]: 94% | Anti-Lipid Peroxidation (% inhibition) 10 μM [2]: 32.2% | Anti-Lipid Peroxidation (% inhibition) 50 μM [2]: 90.6%

COc1cc(C(C)C)ccc(CN2CCN(C(c3ccc(C(F)(F)F)cc3)c3ccc(C(F)(F)F)cc3)CC2)c1=O [Compound 8A, 7-{4-[4,4'-di(trifluoromethyl)benzhydryl]piperazino-1-methyl}-4-isopropyl-2-methoxy-2,4,6-cycloheptatrien-1-one]
inhibition at 10 µM [1]: 27% | Anti-Lipid Peroxidation (% inhibition) 10 μM [2]: 32.3% | Anti-Lipid Peroxidation (% inhibition) 50 μM [2]: 51.8%

CCOc1cc(C(C)C)ccc(CN2CCN(C(c3ccc(F)cc3)c3ccc(F)cc3)CC2)c1=O [Compound 12A, 7-[4-(4,4'-difluorobenzhydryl)piperazino-1-methyl]-2-ethoxy-4-isopropyl-2,4,6-cycloheptatrien-1-one]
inhibition at 10 µM [1]: 72% | Anti-Lipid Peroxidation (% inhibition) 10 μM [2]: 21.4% | Anti-Lipid Peroxidation (% inhibition) 50 μM [2]: 50.4%

COc1cc(C(C)C)ccc(CN2C(C)CN(C(c3ccc(F)cc3)c3ccc(F)cc3)CC2C)c1=O (stereo not drawn) [Compound 21C, 7-[4-(4,4'-difluorobenzhydryl)-2,6-dimethylpiperazino-1-methyl]-4-isopropyl-2-methoxy-2,4,6-cycloheptatrien-1-one]
inhibition at 10 µM [1]: 42% | Anti-Lipid Peroxidation (% inhibition) 10 μM [2]: 47.8% | Anti-Lipid Peroxidation (% inhibition) 50 μM [2]: 89.9%

COc1cc(C(C)C)ccc(C2Sc3ccccc3N2CCc2ccccn2)c1=O (stereo not drawn) [Compound 7B, 2-(2'-oxo-3'-methoxy-5'-isopropyl-3',5',7'-cycloheptatrienyl)-3-[2-(2-pyridyl)ethyl]benzothiazoline]
Anti-Lipid Peroxidation (% inhibition) 10 μM [2]: 91.9% | Anti-Lipid Peroxidation (% inhibition) 50 μM [2]: 94.3%

CC(C)c1ccc(CN2CCN(C(c3ccc(F)cc3)c3ccc(F)cc3)CC2)c(=O)c(OCCCN(C)CCc2ccccc2)c1 [Compound 18A, 7-[4-(4,4'-difluorobenzhydryl)piperazino-1-methyl]-2-[3-(N-methyl-N-phenethylamino)propoxy]-4-isopropyl-2,4,6-cycloheptatrien-1-one]
Anti-Lipid Peroxidation (% inhibition) 10 μM [2]: 37.0% | Anti-Lipid Peroxidation (% inhibition) 50 μM [2]: 93.1%

COc1cc(C(C)C)ccc(C2Sc3ccccc3N2Cc2ccccn2)c1=O (stereo not drawn) [Compound 4B, 2-(2'-oxo-3'-methoxy-5'-isopropyl-3',5',7'-cycloheptatrienyl)-3-(2-picolyl)benzothiazoline]
Anti-Lipid Peroxidation (% inhibition) 10 μM [2]: 95.7% | Anti-Lipid Peroxidation (% inhibition) 50 μM [2]: 99.3%

COc1cc(C(C)C)ccc(C2Sc3ccccc3N2Cc2cccnc2)c1=O (stereo not drawn) [Compound 5B, 2-(2'-oxo-3'-methoxy-5'-isopropyl-3',5',7'-cycloheptatrienyl)-3-(3-picolyl)benzothiazoline]
Anti-Lipid Peroxidation (% inhibition) 10 μM [2]: 95.9% | Anti-Lipid Peroxidation (% inhibition) 50 μM [2]: 100%

COc1cc(C(C)C)ccc(C2Sc3ccccc3N2Cc2ccc3ccccc3n2)c1=O (stereo not drawn) [Compound 9B, 2-(2'-oxo-3'-methoxy-5'-isopropyl-3',5',7'-cycloheptatrienyl)-3-(2-quinolyl)methylbenzothiazoline]
Anti-Lipid Peroxidation (% inhibition) 10 μM [2]: 94.9% | Anti-Lipid Peroxidation (% inhibition) 50 μM [2]: 96.6%

CC(C)c1ccc(C2Sc3ccccc3N2CCc2ccccc2)c(=O)c(N2CCNCC2)c1 (stereo not drawn) [Compound 15B, 2-[2'-oxo-3'-(1-piperazinyl)-5'-isopropyl-3',5',7'-cycloheptatrienyl]-3-phenethylbenzothiazoline]
Anti-Lipid Peroxidation (% inhibition) 10 μM [2]: 93.0% | Anti-Lipid Peroxidation (% inhibition) 50 μM [2]: 94.4%

COc1ccc(CCN2c3ccccc3SC2c2ccc(C(C)C)cc(OC)c2=O)cc1OC (stereo not drawn) [Compound 8B, 2-(2'-oxo-3'-methoxy-5'-isopropyl-3',5',7'-cycloheptatrienyl)-3-[2-(3,4-dimethoxyphenyl)ethyl]benzothiazoline]
Anti-Lipid Peroxidation (% inhibition) 10 μM [2]: 93.4% | Anti-Lipid Peroxidation (% inhibition) 50 μM [2]: 93.8%
